Columns and labels:
visceral pain perception = assay: Rat model of visceral pain perception (colorectal distension, AWR score); assay type: in vivo; conditions: 0.8 mL colorectal distention; for pain perception score: 100 mg/kg i.p., FIG. 3, FIG. 4
Protocol: A rat model of visceral pain perception, a pre-clinical model of irritable bowel syndrome, was used in the following example. Rats (male, Wistar, 200-250 g, obtained from Charles River, Monza, Italy), were housed in plastic cages and maintained under controlled conditions with 12-hours light/dark cycle with lights on at 7.00 AM. Tap water and standard laboratory chow were freely available. Before experiments, rats were individually trained by spending 2-3 hours per day in a plexiglass cage for 2-3 days. It allowed them to adjust to a movement-restriction environment. Food was withheld for 12 hours before colorectal distension (CRD) recording were performed. Experiments were performed in awake rats and were conducted in a blind manner in that the observer was not aware of the identity of drug administered to each animal.
In the testing day, rats were sedated with ether inhalation and a 2 cm long latex balloon was inserted intrarectally 2 cm from the anal verge and fixed at the base of the tail. The balloon was connected via a double-barreled cannula to a pressure transducer to continuously monitoring the rectal pressure by a computer (PowerLab PC, A.D. Instruments, Milford, Mass., USA) and to a syringe for inflation/deflation of the balloon. The rats were then housed in a small cage (20×8×8 cm) on an elevated Plexiglas™ platform and allowed to wake up and adapt for 1 hour. After recovery from sedation, animals underwent the CRD procedure and behavioral responses were tested. The night before the experiments, the balloons were inflated and left overnight so the latex stretched and the balloons became compliant.
CRD of 20 seconds, performed every 5 minutes, was applied in increment of 0.4 ml starting from 0.4 ml up to 1.6 ml water. To achieve an accurate measurement of the colonic parameters and perception, the distensions were repeated twice for each intensity and data for each animal were averaged for analysis. Each animal underwent a double set of CRD. Twenty minutes after the first sequence of CRD (0.4 mL-1.6 ml water), drugs were administered intraperitoneally (i.p.) and a second set of CRD was performed. Behavioral responses during the first and the second set of CRD were assessed and compared.
Behavioral response to CRD was assessed by measuring the abdominal withdrawal reflex (AWR) using a semiquantitative score (1).
A rat model of visceral pain perception as described above was used to compare pain perception scores for 5-amino-2-(4-thiocarbamoyl-phenoxycarbonyloxy)-benzoic acid (Compound XXVII) with or without glibenclamide, an inhibitor of ATP-sensitive K^+ (KATP) channels.
Experiments were carried out as described in Example 13, except that groups of 5 rats each were treated with vehicle, trimebutine maleate (10 mg/kg), or with equimolar doses of trimebutine thiocarbamoylbenzoate (Compound III) or thiocarbamolybenzoate alone.

[1] = H2S generation in buffer and liver homogenate (Example 15); assay type: in vitro ADME, rat; conditions: for H2S generation in buffer: buffer pH 7.4, 37° C.
Protocol: (Compound XXVII) was tested for H2S generation under three different conditions. Concentrations of H2S that were generated within 1 hour from 1 mM concentrations of L-cysteine, 4-HBT (4-hydroxythiobenzamide) and 5-amino-2-(4-thiocarbamoyl-phenoxycarbonyloxy)-benzoic acid were measured. H2S release was tested under three conditions: (i) when the compound was in buffer, (ii) when the compound was in a liver homogenate, and (iii) when the compound was in the liver homogenate together with an inhibitor of cystathionine γ-lyase (PAG=DL-propargylglycine; 2 mM). Results are shown in FIG. 6. *p<0.05 compared to the release from the vehicle group. ^ψp>0.05 versus the corresponding ‘homogenate’ group. The enzymatic capacity for H2S production was determined using the same reactor as described previously (Khan et al. (1980) Microchem J 25: 388-395, incorporated herein by reference). Two ml of an assay reaction mixture was introduced in the reactor. The mixture contained 1 mM L-cysteine (or compound), 2 mM pyridoxal 5′-phosphate, 100 mM potassium phosphate buffer (pH=7.4). A constant stream of nitrogen was passed through the mixture via gas-inlet capillary. Reactions were initiated by transferring the tubes from ice bath to a 37° C. water bath. The stream of nitrogen carried the sulfide acid in the second reactor containing 4 ml of sulfide anti-oxidant buffer (SAOB) solution, consisting of 2M KOH, 1M salicylic acid and 0.22M ascorbic acid at pH 12.8[5]. After incubating at 37° C. for 90 minutes, 1 ml of 10% trichloroacetic acid solution was added to mixture to stop the reaction. The remainder H2S in the mixture was carried out via nitrogen stream by other 60 minutes of incubation at 37° C. The concentration of sulfide in SAOB solution was measured with a sulfide sensitive electrode (Model 9616 S^2−/Ag^+ electrode, Orion Research, Beverly, Mass., USA). For studies in which the test compounds were incubated in liver homogenate, 100-150 mg of isolated rat livers were homogenized in 1 ml of ice-cold T-PER protein extractor. The homogenates were added to the reaction mixture at a concentration of 10% (wt/vol). DL-propargylglycine 2 mM was incubated with liver homogenates for 5 min at 37° C. prior the enzyme reaction. Khan, S. U. Morris, G. F. and Hidiroglou, M. (1980) Rapid estimation of sulfide in rumen and blood with a sulfide-specific ion electrode. Microchem J. 25:388-395, incorporated herein by reference.

COX-2 = target: T1, COX-2 (Rattus norvegicus, UniProt P35355); assay: Rat airpouch assay, exudate PGE2 after zymosan; assay type: in vivo; conditions: oral 30 min before; diclofenac 3 mg/kg, Compound XVII 4.1 mg/kg; FIG. 12
T1 construct: from tissue; host or cells: rat subcutaneous airpouch exudate, in vivo, zymosan-induced
T1 sequence (P35355 18-604): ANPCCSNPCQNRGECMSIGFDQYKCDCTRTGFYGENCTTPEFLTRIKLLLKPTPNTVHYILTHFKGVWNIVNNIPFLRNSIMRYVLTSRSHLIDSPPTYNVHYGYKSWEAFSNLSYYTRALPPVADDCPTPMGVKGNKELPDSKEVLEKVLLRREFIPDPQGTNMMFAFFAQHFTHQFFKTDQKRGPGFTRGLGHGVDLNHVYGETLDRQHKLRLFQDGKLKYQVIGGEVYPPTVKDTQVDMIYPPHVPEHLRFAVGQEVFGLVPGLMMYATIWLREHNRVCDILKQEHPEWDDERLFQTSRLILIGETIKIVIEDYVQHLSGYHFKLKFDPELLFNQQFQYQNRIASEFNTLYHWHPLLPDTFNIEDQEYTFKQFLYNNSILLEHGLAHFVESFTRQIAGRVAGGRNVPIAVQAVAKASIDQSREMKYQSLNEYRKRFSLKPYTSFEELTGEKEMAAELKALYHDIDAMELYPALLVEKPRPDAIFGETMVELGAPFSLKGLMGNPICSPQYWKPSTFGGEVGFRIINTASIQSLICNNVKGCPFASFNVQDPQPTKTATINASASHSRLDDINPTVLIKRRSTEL
Protocol: Briefly, a subcutaneous “pouch” is created by repeated injections of air over several days. Once established, inflammation in the pouch can be induced by injection of 1 mL of 1% zymosan. […] Another group of 5 rats was treated with the vehicle, but received an injection of 0.9% sterile saline into the pouch rather than zymosan.
Each group consisted of 5 rats.

Row | Molecule | pain perception score (visceral pain perception) | pain perception score after glibenclamide pretreatment (visceral pain perception; glibenclamide 10 mg/kg i.p. 30 min before, FIG. 3) | H2S generation in liver homogenate ([1]; 1 mM compound, 10% rat liver homogenate, FIG. 6) | H2S generation in buffer ([1]; 1 mM compound, FIG. 6) | H2S generation in liver homogenate with PAG ([1]; 1 mM compound, liver homogenate plus DL-propargylglycine 2 mM, FIG. 6) | concentration of H2S produced ([1]; 1 mM of the compound) [µM] | exudate PGE2 in the pouch (COX-2 activity) (COX-2)
1 | 5-amino-2-(4-thiocarbamoyl-phenoxycarbonyloxy)-benzoic acid [Compound XXVII] | significantly reduced the pain perception | reversed by pretreatment with glibenclamide | greater when in the presence of tissue | releases H2S spontaneously | lack of effect | 10 to 20 | –
2 | NC(=S)c1ccc(O)cc1 [4-hydroxythiobenzamide] | did not have a significant effect on pain perception | – | – | did not release significant H2S | – | – | did not significantly affect COX-2 activity

Source: US8314140B2, “4-hydroxythiobenzamide derivatives of drugs” (Antibe Therapeutics Inc., priority 2006, dated 2012)
